PubChem BioAssay (NCI)
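How tested: cells in 96-well plates exposed to compound for 48 hours at five concentrations. TGI denotes the concentration required for complete inhibition of growth.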

What was measured:
Assay in all cases: NCI tumour cell line growth inhibition, 48 h
HCT-15 colon = system: HCT-15 colon
HS 578T breast = system: HS 578T breast
MALME-3M melanoma = system: MALME-3M melanoma
OVCAR-5 ovarian = system: OVCAR-5 ovarian
HT29 colon = system: HT29 colon
HL-60(TB) leukemia = system: HL-60(TB) leukemia
RXF 393 renal = system: RXF 393 renal
SNB-19 CNS = system: SNB-19 CNS
UACC-257 melanoma = system: UACC-257 melanoma
IGROV1 ovarian = system: IGROV1 ovarian

| SMILES | TGI (HCT-15 colon) | TGI (HS 578T breast) | TGI (MALME-3M melanoma) | TGI (OVCAR-5 ovarian) | TGI (HT29 colon) | TGI (HL-60(TB) leukemia) | TGI (RXF 393 renal) | TGI (SNB-19 CNS) | TGI (UACC-257 melanoma) | TGI (IGROV1 ovarian) |
| --- | --- | --- | --- | --- | --- | --- | --- | --- | --- | --- |
| CN1C(c2ccccc2)=CC(=O)C(O)=C(c2ccccc2)S1(=O)=O | > 100 µM | > 100 µM | > 100 µM | > 100 µM | > 100 µM | > 100 µM | > 100 µM | > 100 µM | > 100 µM | > 100 µM |
| O=C(O)CSc1cc(-c2ccccc2)nc2ccccc12 | > 100 µM | 61.4 µM | > 100 µM | > 100 µM | > 100 µM | 58.2 µM | 94.8 µM | > 100 µM | > 100 µM | > 100 µM |
| CC(C)CCC1(O)O[C@H]2C[C@H]3[C@@H]4CCC5CC(=O)C=C[C@]5(C)[C@H]4CC[C@]3(C)[C@H]2[C@@H]1C (stereo not given in full) | 23.4 µM | 7.31 µM | 29.5 µM | 26.2 µM | 26.9 µM | 17.7 µM | 24.2 µM | 31.3 µM | 28.3 µM | 30.3 µM |
| COc1ccc2c3c1OC1C(=O)C=CC4(O)C(C2)NCC[C@@]314 (stereo not given in full) | 11.3 µM | 6.39 µM | 2.81 µM | 8.84 µM | 11.7 µM | 4.4 µM | 3.74 µM | 19.1 µM | 5.3 µM | 15.1 µM |
| CCCN1C(=O)CCC2=C1CCc1c2ccc(Cl)c1Cl | > 100 µM | 22 µM | > 100 µM | 82 µM | > 100 µM | 86.2 µM | 50.5 µM | > 100 µM | > 100 µM | > 100 µM |
| N#Cc1[nH]c(=O)n(-c2ccc(Cl)cc2)c1N | > 10 µM | > 10 µM | > 10 µM | > 10 µM | > 10 µM | > 10 µM | > 10 µM | > 10 µM | > 10 µM | > 10 µM |
| CC(=O)OCC1OC(n2c(N)c(C#N)c(-c3ccccc3)c(C#N)c2=S)C(OC(C)=O)C(OC(C)=O)C1OC(C)=O (stereo not given) | > 100 µM | 54.1 µM | > 100 µM | > 100 µM | > 100 µM | > 100 µM | > 70.5 µM | > 75.4 µM | > 100 µM | > 100 µM |
| Cc1csc2nc(-c3ccc([N+](=O)[O-])cc3)c(/C=N/N=C(N)N)n12 | 1.68 µM | 3.15 µM | 3.61 µM | 2.85 µM | 3.21 µM | 4.49 µM | 3.45 µM | 4.18 µM | 3.05 µM | 2.75 µM |
| Cc1cc(N(CCC#N)CCC#N)ccc1/C(N=Nc1cccc([N+](=O)[O-])c1)=N/NC(=O)c1cc(Cl)ccc1O | 80.5 µM | > 100 µM | > 100 µM | > 100 µM | > 100 µM | 37.8 µM | 72.2 µM | > 100 µM | 94.1 µM | 32.8 µM |
| O=C1c2ccccc2CC12Cc1cc3c(cc1C2=O)CCC3 (stereo not given) | > 100 µM | > 100 µM | > 100 µM | > 100 µM | > 100 µM | > 100 µM | > 100 µM | > 100 µM | > 100 µM | > 100 µM |
| O=C(Oc1ccccc1)c1cc2cc(CCl)ccc2oc1=O | > 100 µM | 52.8 µM | 8.11 µM | > 100 µM | > 100 µM | > 100 µM | 27.9 µM | > 100 µM | 27.5 µM | > 100 µM |
| O=C(O)CSCC(=O)Nc1ccc2cccc3c2c1CC3 | > 100 µM | > 100 µM | > 100 µM | > 100 µM | > 100 µM | > 100 µM | > 100 µM | > 100 µM | > 100 µM | > 100 µM |
| O=C1CCCc2c1c1c(n2Cc2ccccc2)-c2ccccc2C1=O | 34.7 µM | 77.3 µM | 38.1 µM | > 100 µM | > 100 µM | 58.7 µM | > 100 µM | 41.1 µM | 32.1 µM | 72.1 µM |
| Nc1nc(Cl)cc(NCC2(CO)CCC(Cc3ccccc3)C2)n1 (stereo not given) | > 100 µM | > 79.9 µM | > 71.9 µM | > 100 µM | > 69.4 µM | 26.1 µM | > 80.5 µM | > 100 µM | > 50.7 µM | > 100 µM |
| CN(C)CCNc1ccc([N+](=O)[O-])c2nc3ccccc3c(N)c12 | 4.01 µM | 8.2 µM | 3.12 µM | > 10 µM | 3.07 µM | 6.86 µM | 4.32 µM | > 10 µM | > 10 µM | 2.78 µM |
